From patent publication US9150577B2, “Heterocyclic compounds containing an indole core” (Boehringer Ingelheim International GmbH, priority 2009, dated 2015)

Target: Human RSK2 (Homo sapiens (Human), UniProt P51812)
Assay: Human RSK2 assay (Kinase Glo Plus, residual ATP);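 also: recombinant human RSK2 phosphorylating a substrate peptide, 90 min at 28 °C, leftover ATP read by luminescence, RLU scaled between no-kinase background and uninhibited kinase controls, 4-parameter fit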
Assay type: biochemical

Chain of Human RSK2 (P51812 whole entry): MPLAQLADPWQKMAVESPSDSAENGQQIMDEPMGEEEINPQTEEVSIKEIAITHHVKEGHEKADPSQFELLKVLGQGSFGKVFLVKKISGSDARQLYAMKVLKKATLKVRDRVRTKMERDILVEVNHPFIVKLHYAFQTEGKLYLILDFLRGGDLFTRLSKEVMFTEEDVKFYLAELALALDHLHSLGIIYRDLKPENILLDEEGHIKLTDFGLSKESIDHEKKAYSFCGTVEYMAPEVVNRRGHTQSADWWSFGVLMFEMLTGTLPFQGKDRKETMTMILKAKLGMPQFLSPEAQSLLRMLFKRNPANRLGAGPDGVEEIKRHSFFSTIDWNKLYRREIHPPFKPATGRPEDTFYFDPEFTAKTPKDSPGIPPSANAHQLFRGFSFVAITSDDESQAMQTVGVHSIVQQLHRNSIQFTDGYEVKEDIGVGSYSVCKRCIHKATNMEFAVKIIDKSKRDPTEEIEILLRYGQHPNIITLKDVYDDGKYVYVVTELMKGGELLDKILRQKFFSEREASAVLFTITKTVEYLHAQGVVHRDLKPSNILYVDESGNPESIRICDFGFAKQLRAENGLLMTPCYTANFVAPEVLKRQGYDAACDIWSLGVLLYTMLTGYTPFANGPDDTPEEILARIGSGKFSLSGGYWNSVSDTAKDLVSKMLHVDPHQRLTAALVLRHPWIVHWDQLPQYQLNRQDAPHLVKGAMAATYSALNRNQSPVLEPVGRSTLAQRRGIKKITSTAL

| Compound | IC50 |
| --- | --- |
| Cc1cnc(NC(=O)c2ccc3cc4n(c3c2)CCCNC4=O)s1 [Example 106, N-(5-methyl-1,3-thiazol-2-yl)-1-oxo-2,3,4,5-tetrahydro-1H-[1,4]diazepino[1,2-a]indole-8-carboxamide] | 300 nM |
| O=C(Nc1cnn(Cc2ccccc2)c1)c1ccc2cc3n(c2c1)CCCNC3=O [Example 32, N-(1-benzyl-1H-pyrazol-4-yl)-1-oxo-2,3,4,5-tetrahydro-1H-[1,4]diazepino[1,2-a]indole-8-carboxamide] | 4 nM |
| O=C(Nc1cnn(Cc2ccccc2)c1)c1ccc2cc3n(c2c1)CC1(CC1)CNC3=O [Example 125, N-(1-benzyl-1H-pyrazol-4-yl)-1′-oxo-2′,3′-dihydro-1′H-spiro[cyclopropane-1,4′-[1,4]diazepino[1,2-a]indole]-8′-carboxamide] | 11 nM |
| C[C@H]1NC(=O)c2cc3ccc(C(=O)Nc4cnn(Cc5ccccc5)c4)cc3n2[C@H]1C [Example 142, (3R,4S)-N-(1-benzyl-1H-pyrazol-4-yl)-3,4-dimethyl-1-oxo-1,2,3,4-tetrahydropyrazino[1,2-a]indole-7-carboxamide] | 65.5 nM |
| CCn1c(NC(=O)c2ccc3cc4n(c3c2)C(C)(C)CNC4=O)nc2ccccc21 [Example 82, N-(1-ethyl-1H-benzimidazol-2-yl)-4,4-dimethyl-1-oxo-1,2,3,4-tetrahydropyrazino[1,2-a]indole-7-carboxamide] | 0.25 nM |
| C[C@@H]1NC(=O)c2cc3ccc(C(=O)Nc4cccnc4)cc3n2[C@H]1C (relative stereo) [Example 180, Trans-3,4-dimethyl-1-oxo-N-(pyridin-3-yl)-1,2,3,4-tetrahydropyrazino[1,2-a]indole-7-carboxamide] | 895 nM |

The next lines start with the values.

| IC50 | Compound |
| --- | --- |
| 1200 nM | Cc1cc(NC(=O)c2ccc3cc4n(c3c2)[C@@H](C)CCNC4=O)no1 [Example 173, (5S)-5-methyl-N-(5-methyl-1,2-oxazol-3-yl)-1-oxo-2,3,4,5-tetrahydro-1H-[1,4]diazepino[1,2-a]indole-8-carboxamide] |
| 140 nM | CC(C)c1cccc(NC(=O)c2ccc3cc4n(c3c2)CCCNC4=O)c1 [Example 145, 1-oxo-N-[3-(propan-2-yl)phenyl]-2,3,4,5-tetrahydro-1H-[1,4]diazepino[1,2-a]indole-8-carboxamide] |
| 30 nM | CN(C)CC(C)(C)Cn1c(NC(=O)c2ccc3cc4n(c3c2)CCCNC4=O)nc2ccccc21 [Example 84, N-{1-[3-(dimethylamino)-2,2-dimethylpropyl]-1H-benzimidazol-2-yl}-1-oxo-2,3,4,5-tetrahydro-1H-[1,4]diazepino[1,2-a]indole-8-carboxamide] |
| 3 nM | Cc1ccc2[nH]c(NC(=O)c3ccc4cc5n(c4c3)CCCNC5=O)nc2c1 [Example 39, N-(5-methyl-1H-benzimidazol-2-yl)-1-oxo-2,3,4,5-tetrahydro-1H-[1,4]diazepino[1,2-a]indole-8-carboxamide] |
| 41 nM | CC1CCNC(=O)c2cc3ccc(C(=O)Nc4cccnc4)cc3n21 (centres unmarked) [Example 10, 5-methyl-1-oxo-N-(pyridin-3-yl)-2,3,4,5-tetrahydro-1H-[1,4]diazepino[1,2-a]indole-8-carboxamide] |
| 160 nM | CC(=O)c1cccc(NC(=O)c2ccc3cc4n(c3c2)CCCNC4=O)c1 [Example 187, N-(3-acetylphenyl)-1-oxo-2,3,4,5-tetrahydro-1H-[1,4]diazepino[1,2-a]indole-8-carboxamide] |
| 23 nM | CN(C)CCn1c(NC(=O)c2ccc3cc4n(c3c2)CCCNC4=O)nc2ccccc21 [Example 103, N-{1-[2-(dimethylamino)ethyl]-1H-benzimidazol-2-yl}-1-oxo-2,3,4,5-tetrahydro-1H-[1,4]diazepino[1,2-a]indole-8-carboxamide] |
| 1100 nM | C[C@@H]1CNC(=O)c2cc3ccc(C(=O)Nc4cccnc4)cc3n2[C@H]1C (relative stereo) [Example 151, Trans-4,5-dimethyl-1-oxo-N-(pyridin-3-yl)-2,3,4,5-tetrahydro-1H-[1,4]diazepino[1,2-a]indole-8-carboxamide] |
